Assay results taken from patent US11236083B2, “Compounds and pharmaceutical compositions for modulating SGK activity, and methods thereof” (NEW ERA PHARMA, INC., priority 2016, dated 2022).
pIC50: −log10 of the molar value. Values joined by “and” are separate entries in the source; they are usually repeats but may differ in a detail not shown here. Equal entries are not always repeated. Where two headings read alike, the source gives them in different places.

Legend:
HeLa = HeLa cell testing (Table 2); type: cell-based; details: Homo sapiens; HeLa cells
Sgk2 = biological target: T1, Sgk2 (Homo sapiens, UniProt Q9HBY8); assay: Enzyme based assay for SGK2 (biotinylated Akt Substrates-2 peptide, Eu3+ Cryptate/XL665 detection); type: biochemical
T1 sequence (Q9HBY8 1-367): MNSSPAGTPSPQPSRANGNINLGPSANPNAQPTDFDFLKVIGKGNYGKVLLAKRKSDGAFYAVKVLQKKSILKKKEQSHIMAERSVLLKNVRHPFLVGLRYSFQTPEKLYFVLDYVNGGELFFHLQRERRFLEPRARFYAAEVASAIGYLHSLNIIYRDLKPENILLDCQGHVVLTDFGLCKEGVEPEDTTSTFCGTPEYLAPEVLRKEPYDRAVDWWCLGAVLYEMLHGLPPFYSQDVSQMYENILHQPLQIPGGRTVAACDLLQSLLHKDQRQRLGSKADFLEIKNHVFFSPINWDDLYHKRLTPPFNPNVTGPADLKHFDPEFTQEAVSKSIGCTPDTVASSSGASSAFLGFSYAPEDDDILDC
Protocol: (§1) 1. Enzyme Based Assays for SGK1, SGK2, SGK3, and Akt1
(§2) The kinase enzymatic reaction is carried out with a biotinylated Akt Substrates-2 peptide substrate. The phosphorylated substrate is then detected using a specific anti-phospho peptide antibody which is coupled with Eu^3+ Cryptate and XL665 conjugated with streptavidin.
(§3) Exemplary Assay Conditions
(§4) • Enzyme: ˜0.1 nM • Substrate: 0.2 μM • ATP: 50 μM and 1 mM • Mg^2+: 10 mM • Reaction time: 60 min with 50 μM ATP and 30 min with 1 mM ATP • SA-XL to Biotin: 1:10
(§5) Detailed Steps • 1. prepare the enzyme and substrate solution with the buffer from Cisbio • 2. add the enzyme and substrate solution to the diluted compound plate • 3. transfer 5 μL of compound, enzyme, and substrate mixture to an 384-well assay plate • 4. add 5 μL ATP (with Mg^2+) solution to initiate the reaction • 5. after certain time, add 10 μL of stop solution containing SA-XL and specific antibody • 6. read the plate after 2 h incubation at rt • 7. process the data using prizm software (Exemplary results are shown in FIG. 1.) 2. PK Studies Protocol

Sgk1 = biological target: T2, Sgk1 (Homo sapiens, UniProt O00141); assay: Enzyme based assay for SGK1 (biotinylated Akt Substrates-2 peptide, Eu3+ Cryptate/XL665 detection); type: biochemical
T2 sequence (O00141 1-431): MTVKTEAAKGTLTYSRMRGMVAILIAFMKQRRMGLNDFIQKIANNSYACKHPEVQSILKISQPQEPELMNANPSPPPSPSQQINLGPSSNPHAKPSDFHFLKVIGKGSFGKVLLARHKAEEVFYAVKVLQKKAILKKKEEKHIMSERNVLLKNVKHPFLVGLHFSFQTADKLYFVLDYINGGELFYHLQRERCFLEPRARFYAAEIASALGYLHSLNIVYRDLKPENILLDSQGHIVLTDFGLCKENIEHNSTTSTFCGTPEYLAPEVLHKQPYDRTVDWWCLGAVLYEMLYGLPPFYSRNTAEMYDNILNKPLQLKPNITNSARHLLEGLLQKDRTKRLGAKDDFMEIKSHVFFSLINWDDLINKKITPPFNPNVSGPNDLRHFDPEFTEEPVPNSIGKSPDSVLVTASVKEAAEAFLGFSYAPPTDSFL
Protocol: as §1, §2, §3, §4, §5

293T_O = 293T_O cell testing (Table 2); type: cell-based; details: 293T_O cells
293T = 293T cell testing (Table 2); type: cell-based; details: Homo sapiens, HEK-293T; 293T cells
Sgk3 = biological target: T3, Sgk3 (Homo sapiens, UniProt Q96BR1); assay: Enzyme based assay for SGK3; type: biochemical
T3 sequence (Q96BR1 1-496): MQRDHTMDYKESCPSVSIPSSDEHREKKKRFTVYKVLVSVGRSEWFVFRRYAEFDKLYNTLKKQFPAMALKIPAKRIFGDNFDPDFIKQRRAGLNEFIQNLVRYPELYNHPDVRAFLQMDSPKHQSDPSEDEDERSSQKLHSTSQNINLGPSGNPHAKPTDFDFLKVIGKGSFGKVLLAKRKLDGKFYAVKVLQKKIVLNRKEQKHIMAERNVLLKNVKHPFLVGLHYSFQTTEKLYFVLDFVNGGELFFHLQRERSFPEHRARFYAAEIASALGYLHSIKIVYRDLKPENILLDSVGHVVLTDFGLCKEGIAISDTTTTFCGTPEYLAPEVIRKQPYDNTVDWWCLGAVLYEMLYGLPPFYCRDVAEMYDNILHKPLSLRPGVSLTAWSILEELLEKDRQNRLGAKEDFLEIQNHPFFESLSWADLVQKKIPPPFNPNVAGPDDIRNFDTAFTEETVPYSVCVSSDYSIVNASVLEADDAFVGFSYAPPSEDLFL
Protocol: as §1, §2, §3, §4, §5

hERG channels = biological target: T4, hERG channels (Homo sapiens, UniProt Q12809); assay: Qpatch hERG assay (automated patch clamp, whole-cell tail current); type: cell-based; details: for pIC50: CHO cell line stably expressing hERG channels, highest test concentration 30 μM
T4 construct: expressed in transfected cells
Protocol: • Assay platform & method: Automated patch clamp (Qpatch-48) • Cell source: CHO cell line stably expressing hERG channels • Measured parameter: Whole-cell tail current of hERG channels • Test concentration: 6 concentrations (30, 10, 3, 1, 0.3, 0.1 μM)
Example: Qpatch hERG Assay

[1] = 50 μM ATP, read-out: Sgk2 (50 μM ATP)
[2] = 1 mM ATP, read-out: Sgk2 (1 mM ATP)
[3] = 50 μM ATP, read-out: Sgk1 (50 μM ATP)
[4] = 1 mM ATP, read-out: Sgk1 (1 mM ATP)

T4 sequence (Q12809 whole entry): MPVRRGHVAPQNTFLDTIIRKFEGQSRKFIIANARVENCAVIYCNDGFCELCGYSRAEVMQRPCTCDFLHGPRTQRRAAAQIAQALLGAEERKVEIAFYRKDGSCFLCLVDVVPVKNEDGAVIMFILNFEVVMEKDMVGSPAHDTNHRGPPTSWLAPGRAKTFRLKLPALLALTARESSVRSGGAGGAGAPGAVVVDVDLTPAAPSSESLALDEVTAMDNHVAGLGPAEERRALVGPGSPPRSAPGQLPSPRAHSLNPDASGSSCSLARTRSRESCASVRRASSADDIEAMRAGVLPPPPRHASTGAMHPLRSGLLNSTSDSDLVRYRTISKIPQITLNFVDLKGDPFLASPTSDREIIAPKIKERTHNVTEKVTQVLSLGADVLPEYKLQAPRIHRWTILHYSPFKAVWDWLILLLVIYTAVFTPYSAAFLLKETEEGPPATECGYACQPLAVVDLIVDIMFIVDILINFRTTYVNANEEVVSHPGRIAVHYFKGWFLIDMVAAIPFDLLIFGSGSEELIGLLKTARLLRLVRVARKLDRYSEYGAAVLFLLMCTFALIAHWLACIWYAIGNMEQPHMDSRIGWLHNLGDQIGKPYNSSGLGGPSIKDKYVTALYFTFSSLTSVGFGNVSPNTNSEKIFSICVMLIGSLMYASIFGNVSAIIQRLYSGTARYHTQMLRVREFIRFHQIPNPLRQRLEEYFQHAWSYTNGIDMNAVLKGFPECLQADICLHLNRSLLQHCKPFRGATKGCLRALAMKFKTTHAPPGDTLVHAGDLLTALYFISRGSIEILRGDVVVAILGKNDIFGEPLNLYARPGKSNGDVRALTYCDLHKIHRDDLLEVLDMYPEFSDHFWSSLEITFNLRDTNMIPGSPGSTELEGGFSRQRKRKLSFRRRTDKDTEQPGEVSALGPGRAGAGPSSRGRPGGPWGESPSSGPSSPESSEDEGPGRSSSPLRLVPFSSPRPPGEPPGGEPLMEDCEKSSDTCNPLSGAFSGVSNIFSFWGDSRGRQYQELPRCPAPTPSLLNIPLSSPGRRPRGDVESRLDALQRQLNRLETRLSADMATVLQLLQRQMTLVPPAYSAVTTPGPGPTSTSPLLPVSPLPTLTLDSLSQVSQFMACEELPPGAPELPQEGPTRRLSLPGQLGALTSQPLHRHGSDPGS

SMILES | pIC50 (HeLa) | pIC50 (Sgk2; [1]) | pIC50 (Sgk2; [2]) | pIC50 (Sgk1; [3]) | pIC50 (Sgk1; [4]) | pIC50 (293T_O) | pIC50 (293T) | pIC50 (Sgk3) | pIC50 (hERG channels) | Fitting curve Hillslope (hERG channels; Qpatch hERG concentration-response fit)
COc1ccc(Cl)c(S(=O)(=O)Nc2ccc(-c3cc4[nH]ncc4c(OCC4CNCCO4)n3)cc2)c1 (stereo not shown) | 4.93 | 8.70 | 7.80 | 8.60 | 8.16 | 4.45 | 4.69 | – | – | –
COc1ccc(F)c(S(=O)(=O)Nc2ccc(-c3cc4[nH]ncc4c(SCC4CNCCO4)n3)cc2)c1 (stereo not shown) | 4.81 | 8.47 | 8.39 | 8.64 | 8.18 | 4.61 | 4.75 | – | – | –
COc1ccc(F)c(S(=O)(=O)Nc2ccc(-c3cc(CCC4CNCCO4)c4cn[nH]c4c3)cc2)c1 (stereo not shown) | – | 8.39 | 8.09 | 8.49 | 7.94 | – | – | 6.82 | – | –
COc1ccc(F)c(S(=O)(=O)Nc2ccc(-c3cc(NCC4CNCCO4)c4cn[nH]c4c3)cc2)c1 (stereo not shown) | – | 8.77 | 8.18 | 8.72 | 7.91 | – | – | 6.82 | – | –
COc1ccc(F)c(S(=O)(=O)Nc2ccc(-c3cc(OCCO)c4c(N)n[nH]c4c3)cc2)c1 | – | 8.10 | 8.21 | 8.29 | 8.11 | – | – | 7.05 | – | –
CCOc1cc(-c2ccc(NS(=O)(=O)c3cc(OC)ccc3F)cc2)cc2[nH]nc(N)c12 | – | 7.91 | 7.52 | 7.93 | 8.70 | – | – | 6.89 | – | –
COCCOc1cc(-c2ccc(NS(=O)(=O)c3cc(OC)ccc3F)cc2)cc2[nH]nc(N)c12 | – | 8.10 | 7.67 | 7.56 | 7.03 | – | – | 7.00 | – | –
O=S(=O)(Nc1ccc(-c2ccc3cn[nH]c3n2)cc1)c1cc(Cl)ccc1F | 5.66 | 8.23 | 6.77 | 7.01 | 7.11 | – | – | – | – | –
COc1ccc(F)c(S(=O)(=O)Nc2ccc(-c3ccc4cn[nH]c4n3)cc2)c1 | < 4.30 | 8.74 | 7.18 | 8.28 | 6.82 | – | – | – | – | –
Nc1n[nH]c2nc(-c3ccc(NS(=O)(=O)c4cc(Cl)ccc4F)cc3)ccc12 | 4.70 | 7.66 | 6.24 | 6.62 | < 5.70 | – | – | – | – | –
O=S(=O)(Nc1ccc(-c2ccc3cn[nH]c3c2)cc1)c1cc(Cl)ccc1F | 5.61 | 7.49 | 6.18 | 6.91 | 6.45 | – | – | – | – | –
Nc1n[nH]c2cc(-c3ccc(NS(=O)(=O)c4cc(Cl)ccc4F)cc3)ccc12 | 5.18 | 8.17 | 7.17 | 8.49 | 6.95 | 4.17 | 4.56 | – | – | –
COc1ccc(F)c(S(=O)(=O)Nc2ccc(-c3ccc4c(N)n[nH]c4c3)cc2)c1 | 4.86 | 8.21 | 7.80 | 7.96 | 7.45 | 4.33 | 4.25 | – | – | –
COc1ccc(Cl)c(S(=O)(=O)Nc2ccc(-c3ccc4c(N)n[nH]c4n3)cc2)c1 | 4.66 | 8.68 | 7.19 | 7.90 | 7.17 | 4.34 | 4.22 | – | – | –
COc1ccc(F)c(S(=O)(=O)Nc2ccc(-c3cnc4cn[nH]c4c3)cc2)c1 | 4.86 | 8.07 and 8.47 | < 6.70 | – | < 6.70 | < 4.00 | 4.18 | – | – | –
COc1ccc(F)c(S(=O)(=O)Nc2ccc(-c3cc4[nH]nc(N)c4cn3)cc2)c1 | 4.16 | 8.26 | 7.27 | – | < 6.70 | < 4.00 | 4.03 | – | – | –
COc1ccc(F)c(S(=O)(=O)Nc2ccc(-c3cc(OC)c4c(N)n[nH]c4c3)cc2)c1 [C, N-(4-(3-amino-4-methoxy-1H-indazol-6-yl)-phenyl)-2-fluoro-5-methoxybenzenesulfonamide] | – | – | – | – | – | – | – | – | < 4.52 | –
COc1ccc(F)c(S(=O)(=O)Nc2ccc(-c3cc4[nH]nc(N)c4c(C)n3)cc2)c1 [D, N-(4-(3-amino-4-methyl-1H-pyrazolo[4,3-c]pyr-idin-6-yl)phenyl)-2-fluoro-5-methoxybenzenesulfonamide] | – | – | – | – | – | – | – | – | 4.91 | Fitting curve Hillslope = 0.88
COc1ccc(F)c(S(=O)(=O)Nc2ccc(-c3cc(C)c4c(N)n[nH]c4n3)cc2)c1 [E, N-(4-(3-amino-4-methyl-1H-pyrazolo[3,4-b]-pyridin-6-yl)phenyl)-2-fluoro-5-methoxybenzenesulfonamide] | – | – | – | – | – | – | – | – | < 4.52 | –
COc1ccc(F)c(S(=O)(=O)Nc2ccc(-c3ccc4c(N)n[nH]c4n3)cc2)c1 [J, N-(4-(3-amino-1H-pyrazolo[3,4-b]pyridin-6-yl)-phenyl)-2-fluoro-5-methoxybenzenesulfonamide] | – | – | – | – | – | – | – | – | < 4.52 | –
COc1ccc(F)c(S(=O)(=O)Nc2ccc(-c3cc4[nH]ncc4c(OCC4CNCCO4)n3)cc2)c1 (stereo not shown) [drawing 99] | 4.45 | 9.10 | 8.25 | 8.51 | 8.01 | 4.21 | 4.32 | – | – | –
COc1ccc(F)c(S(=O)(=O)Nc2ccc(-c3cc4[nH]ncc4c(OCC4CNCCO4)n3)cc2)c1 (stereo not shown) [drawing 105] | – | 8.80 | 8.00 | 8.89 | 7.87 | – | – | 7.00 | – | –
COc1ccc(F)c(S(=O)(=O)Nc2ccc(-c3cc(OC)c4c(N)n[nH]c4c3)cc2)c1 [drawing 108] | – | 8.29 | 8.05 | 8.62 | 7.75 | – | – | 7.40 | – | –
COc1ccc(F)c(S(=O)(=O)Nc2ccc(-c3cc4[nH]nc(N)c4c(C)n3)cc2)c1 [drawing 110] | – | 8.51 | 8.28 | 7.97 | 8.07 | – | – | 7.30 | – | –
COc1ccc(F)c(S(=O)(=O)Nc2ccc(-c3cc(C)c4c(N)n[nH]c4n3)cc2)c1 [drawing 111] | – | 8.39 | 8.43 | 8.55 | 8.26 | – | – | 7.52 | – | –
COc1ccc(F)c(S(=O)(=O)Nc2ccc(-c3ccc4c(N)n[nH]c4n3)cc2)c1 [drawing 140] | 4.67 | 8.70 | 8.19 | 8.54 | 8.19 | – | – | 7.15 | – | –
